Where “and” joins values, the source holds several entries; their conditions need not be identical. Equal entries are not always repeated.
Key:
[1] = Acceleration test of plasma samples with stabilizers (30° C. for 1.5 days, against control plasma stored at −95° C. to −65° C.), LC-MS/MS Area/IS Area
Description: Samples were collected in EDTA-anticoagulant blood collection tubes and then rapidly subjected to […] centrifugation at 2-8° C. to separate plasma. 0.95 mL of the plasma was transferred into centrifuge tubes. After 50 μL of the stabilizer was added for uniform mixing, the plasma samples were stored by refrigeration or freezing.
• (1) 500 μL of plasma/urine samples to be tested were taken, and 50 μL of the internal standard solution and 500 μL of the buffer solution were sequentially added for vertex mixing to obtain diluted samples. • (2) The magnetic medium composite material suspension was subjected to full vortex treatment to reach a suspension state, and then subsequent operation was performed. • (3) Different reagents were added into wells of a preprocessing plate according to the follow operation: adding 200 μL of the magnetic medium composite material suspension in column 1, adding 500 μL of the balance solution in column 2, adding 850 μL of the diluted samples in column 3, adding 500 μL of the balance solution in column 4, adding 200 μL of a rinsing solution in column 5, and adding 100 μL of the elution solution in column 6. • (4) An extraction operation procedure was carried out, as shown in Table 5.
Each group of the plasma samples were stored at 30° C. for 1.5 days, and plasma without addition of any compounds stored at −95° C. to −65° C. was used as a control. […] The stabilizing effect of the single-component stabilizers on the plasma samples was investigated.
The stabilizers were mixed with plasma (the volume ratio of the stabilizers to plasma samples was 1:19), and high concentration plasma samples and low concentration plasma samples were prepared by the method provided in Example 1.
With plasma stored at −95° C. to −65° C. as a control, the above plasma samples were separately stored at 30° C. for 1.5 days to investigate the stability. […]

[2] = Stability of ascorbic acid and glutathione in stabilizers accelerated at 37° C. for 14 days against an unaccelerated stabilizer; format: physicochemical; details: for stability of ascorbic acid and glutathione in stabilizers after acceleration: 37° C. for 14 days (equivalent to 1 year at 2-8° C.); for Relative deviation %: after acceleration at 37° C. for 14 days vs new formulations
Description: Stabilizers (Example 1) were accelerated at 37° C. for 14 days (equivalent to 1 year at 2-8° C.) and then compared with an unaccelerated stabilizer.

[3] = Stabilizing effect of accelerated stabilizers (37° C., 14 days) on plasma samples then accelerated at 30° C. for 1.5 days; format: physicochemical, human; details: for Relative deviation %: Accelerate vs Control; for concentration in plasma samples, Control / concentration in plasma samples, Accelerate: single replicates; for concentration in plasma samples, Accelerate: stabilizer accelerated 37° C. 14 days, plasma then accelerated at 30° C. for 1.5 days
Description: (§1) In the present example, the stabilizing effect of the stabilizers on plasma samples, standard products and quality control products after acceleration was further verified. The stabilizers were accelerated at 37° C. for 14 days (equivalent to 1 year at 2-8° C.), added into the plasma samples in proportions and then accelerated at 30° C. for 1.5 days (equivalent to 12 months at −30° C. to −15° C.). The stabilizers were accelerated at 37° C. for 14 days (equivalent to 1 year at 2-8° C.), added into the standard products and the quality control products in proportions and then accelerated at 30° C. for 2 days (equivalent to 18 months at −30° C. to −15° C.).

[4] = Stabilizing effect of accelerated stabilizers (37° C., 14 days) on standard products and quality control products then accelerated at 30° C. for 2 days; format: physicochemical; details: for Relative deviation %: 2 days at 30° C. vs Control; for concentration in standard products and quality control products, 2 days at 30° C. / concentration in standard products and quality control products, Control: single replicates
Description: Standard products of epinephrine, norepinephrine, dopamine, metanephrine, normetanephrine and 3-methoxytyramine were prepared into mixed solutions, and blank plasma containing a stabilizer was used as a matrix to prepare standard products and quality control products.
as §1

[5] = plasma at a high concentration level, plasma containing 50 μg/mL of the component, control plasma 0.624
[6] = plasma at a high concentration level, plasma containing 50 μg/mL of the component, control plasma 1.522
[7] = plasma at a high concentration level, plasma containing 50 μg/mL of the component, control plasma 2.27
[8] = plasma at a high concentration level, plasma containing 200 μg/mL of the component, control plasma 0.624
[9] = plasma at a high concentration level, plasma containing 200 μg/mL of the component, control plasma 1.522
[10] = plasma at a high concentration level, plasma containing 200 μg/mL of the component, control plasma 2.27
[11] = plasma at a low concentration level, plasma containing 50 μg/mL of the component, control plasma 0.079
[12] = plasma at a low concentration level, plasma containing 50 μg/mL of the component, control plasma 0.219
[13] = plasma at a low concentration level, plasma containing 50 μg/mL of the component, control plasma 0.233
[14] = plasma at a low concentration level, plasma containing 200 μg/mL of the component, control plasma 0.079
[15] = plasma at a low concentration level, plasma containing 200 μg/mL of the component, control plasma 0.219
[16] = plasma at a low concentration level, plasma containing 200 μg/mL of the component, control plasma 0.233
[17] = After acceleration (stabilizer of Example 1, 37° C. for 14 days)
[18] = New formulations (unaccelerated stabilizer of Example 1)
[19] = samples at a high concentration level
[20] = samples at a low concentration level

Row | SMILES | Relative deviation % [3, 19] [%] | concentration in plasma samples, Control [3, 19] | concentration in plasma samples, Accelerate [3, 19] | Relative deviation % [3, 20] [%] | concentration in plasma samples, Control [3, 20] | concentration in plasma samples, Accelerate [3, 20] | Relative deviation % ([4]; High concentration level) [%] | average concentration, 2 days at 30° C. ([4]; High concentration level) [pg/mL] | concentration in standard products and quality control products, 2 days at 30° C. ([4]; High concentration level) | average concentration, Control ([4]; High concentration level) [pg/mL] | concentration in standard products and quality control products, Control ([4]; High concentration level) | Relative deviation % ([4]; Low concentration level) [%] | average concentration, 2 days at 30° C. ([4]; Low concentration level) [pg/mL] | concentration in standard products and quality control products, 2 days at 30° C. ([4]; Low concentration level) | average concentration, Control ([4]; Low concentration level) [pg/mL] | concentration in standard products and quality control products, Control ([4]; Low concentration level) | Relative deviation % ([4]; Medium concentration level) [%] | average concentration, 2 days at 30° C. ([4]; Medium concentration level) [pg/mL] | concentration in standard products and quality control products, 2 days at 30° C. ([4]; Medium concentration level) | average concentration, Control ([4]; Medium concentration level) [pg/mL] | other results
1 | O=C1O[C@H]([C@@H](O)CO)C(O)=C1O [ascorbic acid] |  |  |  |  |  |  |  |  |  |  |  |  |  |  |  |  |  |  |  |  | Ratio (Area/IS Area) E [1, 5]: 0; Ratio (Area/IS Area) NE [1, 6]: 0; Ratio (Area/IS Area) DA [1, 7]: 0; Ratio (Area/IS Area) E [1, 8]: 0.048; Ratio (Area/IS Area) NE [1, 9]: 0; Ratio (Area/IS Area) DA [1, 10]: 0; Ratio (Area/IS Area) E [1, 11]: 0; Ratio (Area/IS Area) NE [1, 12]: 0; Ratio (Area/IS Area) DA [1, 13]: 0; Ratio (Area/IS Area) E [1, 14]: 0; Ratio (Area/IS Area) NE [1, 15]: 0; Ratio (Area/IS Area) DA [1, 16]: 0; stability of ascorbic acid and glutathione in stabilizers after acceleration [2]: maintained stable; Area [2, 17]: 6.96E+05 and 6.32E+05 and 6.08E+05; Area [2, 18]: 6.88E+05 and 7.26E+05 and 6.96E+05; Relative deviation % [2]: −8.2%
2 | COc1cc(C(O)CN)ccc1O (centres unmarked) [NMN] | 2.1 | 0.97087 ng/mL and 0.85456 ng/mL and 0.85498 ng/mL | 0.91096 ng/mL and 0.88464 ng/mL and 0.94153 ng/mL | 1.7 | 0.17577 ng/mL and 0.16472 ng/mL and 0.17242 ng/mL | 0.17659 ng/mL and 0.17047 ng/mL and 0.17436 ng/mL | −3.68 | 1910.2 | 1.89388 ng/mL and 1.85479 ng/mL and 1.98193 ng/mL | 1983.21 | 2.00785 ng/mL and 1.95209 ng/mL and 1.98969 ng/mL | 1.41 | 24.2 | 0.02503 ng/mL and 0.02506 ng/mL and 0.0225 ng/mL | 23.86 | 0.02255 ng/mL and 0.02588 ng/mL and 0.02315 ng/mL | 1.5 | 405.18 | 0.39387 ng/mL and 0.42435 ng/mL and 0.39731 ng/mL | 399.18 | concentration in standard products and quality control products, Control ([4]; Medium concentration level): 0.39333 ng/mL and 0.41828 ng/mL and 0.38593 ng/mL
3 | NC[C@H](O)c1ccc(O)c(O)c1 [NE] | −7.1 | 1.73055 ng/mL and 1.84024 ng/mL and 1.88485 ng/mL | 1.79476 ng/mL and 1.56875 ng/mL and 1.70297 ng/mL | −2.5 | 0.27092 ng/mL and 0.2617 ng/mL and 0.26601 ng/mL | 0.26432 ng/mL and 0.25764 ng/mL and 0.25636 ng/mL | 0.32 | 4998.13 | 4.88469 ng/mL and 4.96531 ng/mL and 5.14439 ng/mL | 4982.23 | 4.87738 ng/mL and 5.14511 ng/mL and 4.9242 ng/mL | −8.19 | 55.15 | 0.05733 ng/mL and 0.05299 ng/mL and 0.05514 ng/mL | 60.07 | 0.06429 ng/mL and 0.06019 ng/mL and 0.05575 ng/mL | 1.77 | 994.89 | 0.98928 ng/mL and 1.01881 ng/mL and 0.97658 ng/mL | 977.62 | concentration in standard products and quality control products, Control ([4]; Medium concentration level): 0.97173 ng/mL and 0.97142 ng/mL and 0.98969 ng/mL
4 | N[C@@H](CCC(=O)N[C@@H](CS)C(=O)NCC(=O)O)C(=O)O [glutathione] |  |  |  |  |  |  |  |  |  |  |  |  |  |  |  |  |  |  |  |  | Ratio (Area/IS Area) E [1, 5]: 0; Ratio (Area/IS Area) NE [1, 6]: 0; Ratio (Area/IS Area) DA [1, 7]: 0; Ratio (Area/IS Area) E [1, 8]: 0; Ratio (Area/IS Area) NE [1, 9]: 0; Ratio (Area/IS Area) DA [1, 10]: 0; Ratio (Area/IS Area) E [1, 11]: 0; Ratio (Area/IS Area) NE [1, 12]: 0; Ratio (Area/IS Area) DA [1, 13]: 0; Ratio (Area/IS Area) E [1, 14]: 0; Ratio (Area/IS Area) NE [1, 15]: 0; Ratio (Area/IS Area) DA [1, 16]: 0; stability of ascorbic acid and glutathione in stabilizers after acceleration [2]: maintained stable; Area [2, 17]: 7.45E+04 and 7.62E+04 and 8.98E+04; Area [2, 18]: 8.44E+04; Relative deviation % [2]: −5.0%
5 | NCCc1ccc(O)c(O)c1 [DA] | −2.0 | 0.55903 ng/mL and 0.52998 ng/mL and 0.57132 ng/mL | 0.55049 ng/mL and 0.5487 ng/mL and 0.52712 ng/mL | −0.8 | 0.0743 ng/mL and 0.09053 ng/mL and 0.08768 ng/mL | 0.08786 ng/mL and 0.07829 ng/mL and 0.08442 ng/mL | 0.3 | 1485.59 | 1.46403 ng/mL and 1.43079 ng/mL and 1.56195 ng/mL | 1481.12 | 1.46201 ng/mL and 1.49448 ng/mL and 1.48688 ng/mL | −0.29 | 17.86 | 0.01762 ng/mL and 0.01837 ng/mL and 0.01758 ng/mL | 17.91 | 0.01722 ng/mL and 0.0181 ng/mL and 0.01841 ng/mL | −2.2 | 294.46 | 0.2821 ng/mL and 0.31535 ng/mL and 0.28595 ng/mL | 301.09 | concentration in standard products and quality control products, Control ([4]; Medium concentration level): 0.30826 ng/mL and 0.30148 ng/mL and 0.29352 ng/mL

From US20240310368A1, “DETECTION KIT FOR CATECHOLAMINES AND METABOLITES THEREOF IN PLASMA/URINE AND DETECTION METHOD THEREOF” (Calibra Scientific, Inc., priority 2023, published 2024)
